Measurements published in PubChem BioAssay AID248 (DTP/NCI, 2004).
Several values for one entry are separate records, joined by “and”; a condition that tells them apart may be missing. Equal values may be shown once. Toxic doses and inconclusive results are not listed. Cut-off read from the data, not from the text of the source: active = T/C of 150% or more; inactive = T/C below 125%.

System: L1210 leukemia ip in BDF1 mice, survival T/C
Test: NCI In Vivo Anticancer Drug Screen. Data for tumor model L1210 Leukemia (intraperitoneal) in B6D2F1 (BDF1) mice
Conditions: endpoint: mean survival time, higher = longer survival
How it was run: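 Tumor was transplanted into mice, which were then dosed with test compound or vehicle alone. Survival was recorded for each group, and the treated figure was expressed relative to the control figure.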

[1] = dose: 50.0 mg/kg/injection, schedule: Q01DX001 (ip), vehicle: saline
[2] = dose: 50.0 mg/kg/injection, schedule: Q04DX003 (ip), vehicle: Klucel (hydroxypropylcellulose) (HPC)
[3] = dose: 100.0 mg/kg/injection, schedule: Q01DX001 (ip), vehicle: saline
[4] = dose: 100.0 mg/kg/injection, schedule: Q04DX003 (ip), vehicle: Klucel (hydroxypropylcellulose) (HPC)
[5] = dose: 200.0 mg/kg/injection, schedule: Q01DX001 (ip), vehicle: saline
[6] = dose: 400.0 mg/kg/injection, schedule: Q01DX001 (ip), vehicle: saline
[7] = dose: 200.0 mg/kg/injection, schedule: Q04DX003 (ip), vehicle: Klucel (hydroxypropylcellulose) (HPC)
[8] = dose: 400.0 mg/kg/injection, schedule: Q04DX003 (ip), vehicle: Klucel (hydroxypropylcellulose) (HPC)
[9] = dose: 100.0 mg/kg/injection, schedule: Q01DX009 (ip), vehicle: Klucel (hydroxypropylcellulose) (HPC)
[10] = dose: 200.0 mg/kg/injection, schedule: Q01DX009 (ip), vehicle: Klucel (hydroxypropylcellulose) (HPC)
[11] = dose: 400.0 mg/kg/injection, schedule: Q01DX009 (ip), vehicle: Klucel (hydroxypropylcellulose) (HPC)
[12] = dose: 50.0 mg/kg/injection, schedule: Q01DX009 (ip), vehicle: saline
[13] = dose: 100.0 mg/kg/injection, schedule: Q01DX009 (ip), vehicle: saline
[14] = dose: 200.0 mg/kg/injection, schedule: Q01DX009 (ip), vehicle: saline
[15] = dose: 100.0 mg/kg/injection, schedule: Q01DX001 (ip), vehicle: carboxymethylcellulose (CMC)

Measured: T/C

NN=C(c1ccccc1)c1ccccc1
inactive: dose: 1.3 mg/kg/injection, schedule: Q01DX009 (ip), vehicle: Klucel (hydroxypropylcellulose) (HPC) 103 % of control | dose: 2.61 mg/kg/injection, schedule: Q01DX009 (ip), vehicle: Klucel (hydroxypropylcellulose) (HPC) 94 % of control | dose: 5.23 mg/kg/injection, schedule: Q01DX009 (ip), vehicle: Klucel (hydroxypropylcellulose) (HPC) 94 % of control | dose: 10.46 mg/kg/injection, schedule: Q01DX009 (ip), vehicle: Klucel (hydroxypropylcellulose) (HPC) 86 % of control | dose: 25.0 mg/kg/injection, schedule: Q04DX003 (ip), vehicle: Klucel (hydroxypropylcellulose) (HPC) 97 % of control | dose: 41.87 mg/kg/injection, schedule: Q01DX009 (ip), vehicle: Klucel (hydroxypropylcellulose) (HPC) 91 % of control | [1] 96 % of control | [2] 92 % of control | dose: 83.7 mg/kg/injection, schedule: Q01DX009 (ip), vehicle: Klucel (hydroxypropylcellulose) (HPC) 98 % of control | [3] 96 % of control | [4] 111 % of control | [5] 100 % of control | [6] 96 % of control

O=C(CC1CCCCN1)CC1CCCCN1 (configuration not stated)
inactive: dose: 100.0 mg/kg/injection, schedule: Q04DX003 (ip), vehicle: saline 92 % of control | dose: 200.0 mg/kg/injection, schedule: Q04DX003 (ip), vehicle: saline 101 % of control

O=C(NOC(=O)c1ccco1)c1ccccc1
inactive: [4] 97 % of control | [7] 113 % of control | [8] 104 % of control

CCOC(=O)c1ccc(NC(=O)/C=C/c2ccccc2)cc1
inactive: [9] 97 % of control | [10] 95 % of control | [11] 97 % of control

COc1ccc(NC(=O)c2cc3ccccc3cc2OC(=O)NC(C)(C)C)cc1
inactive: dose: 100.0 mg/kg/injection, schedule: Q04DX002 (ip), vehicle: saline 103 % of control | dose: 200.0 mg/kg/injection, schedule: Q04DX002 (ip), vehicle: saline 113 % of control | dose: 400.0 mg/kg/injection, schedule: Q04DX002 (ip), vehicle: saline 97 % of control

O=Cc1ccc(N(c2ccc(C=O)cc2)c2ccc(C=O)cc2)cc1
inactive: dose: 100.0 mg/kg/injection, schedule: Q04DX003 (ip), vehicle: saline with Tween-80 100 % of control | dose: 200.0 mg/kg/injection, schedule: Q04DX003 (ip), vehicle: saline with Tween-80 89 % of control | dose: 400.0 mg/kg/injection, schedule: Q04DX003 (ip), vehicle: saline with Tween-80 92 % of control

Cc1cc(C)c2ccc(Cl)nc2n1
inactive: dose: 25.0 mg/kg/injection, schedule: Q01DX009 (ip), vehicle: Klucel (hydroxypropylcellulose) (HPC) 97 % of control | dose: 50.0 mg/kg/injection, schedule: Q01DX009 (ip), vehicle: Klucel (hydroxypropylcellulose) (HPC) 99 % of control

COC(=O)C(c1ccccc1)C1(O)CCN(CC2COc3ccccc3O2)CC1 (configuration not stated)
inactive: dose: 25.0 mg/kg/injection, schedule: Q01DX001 (ip), vehicle: Klucel (hydroxypropylcellulose) (HPC) 96 % of control | dose: 50.0 mg/kg/injection, schedule: Q01DX001 (ip), vehicle: Klucel (hydroxypropylcellulose) (HPC) 93 % of control | dose: 100.0 mg/kg/injection, schedule: Q01DX001 (ip), vehicle: Klucel (hydroxypropylcellulose) (HPC) 97 % of control and 102 % of control

COC(OC)C1=C(Cl)C(Cl)=C(Cl)/C1=N\Nc1ccccc1
inactive: [4] 109 % of control | [7] 98 % of control | [8] 100 % of control

CS(=O)(=O)OCCN(CCOS(C)(=O)=O)c1ccc(C=Nc2ccc(-c3csc(-c4ccc(Br)cc4)n3)cc2)c(Cl)c1
inactive: [2] 107 % of control | [4] 112 % of control and 115 % of control | [7] 114 % of control and 118 % of control | [8] 123 % of control

Cc1cc(C)c(S(=O)(=O)Cc2cc(Cl)cc(Cl)c2O)c(C)c1
inactive: [12] 86 % of control | dose: 50.0 mg/kg/injection, schedule: Q04DX003 (ip), vehicle: acetone 93 % of control | [3] 88 % of control | [13] 105 % of control | dose: 100.0 mg/kg/injection, schedule: Q04DX003 (ip), vehicle: acetone 89 % of control | [5] 87 % of control | [14] 91 % of control | dose: 200.0 mg/kg/injection, schedule: Q04DX003 (ip), vehicle: acetone 91 % of control

COc1ccc(COC(=O)Nc2ccc([N+](=O)[O-])cc2OC)cc1
inactive: [9] 90 % of control | [10] 91 % of control | [11] 106 % of control

CCSC1OC(CO)C(O)C1Nc1ccc([N+](=O)[O-])cc1[N+](=O)[O-] (configuration not stated)
inactive: dose: 50.0 mg/kg/injection, schedule: Q01DX001 (ip), vehicle: carboxymethylcellulose (CMC) 89 % of control | [15] 94 % of control

CS(=O)(=O)OCCCCCOS(C)(=O)=O
inactive: dose: 5.0 mg/kg/injection, schedule: Q01DX001 (ip), vehicle: carboxymethylcellulose (CMC) 97 % of control | dose: 6.0 mg/kg/injection, schedule: Q01DX015 (ip), vehicle: saline 101 % of control | dose: 10.0 mg/kg/injection, schedule: Q01DX001 (ip), vehicle: carboxymethylcellulose (CMC) 100 % of control | dose: 12.0 mg/kg/injection, schedule: Q01DX015 (ip), vehicle: saline 110 % of control | dose: 20.0 mg/kg/injection, schedule: Q01DX001 (ip), vehicle: carboxymethylcellulose (CMC) 100 % of control | dose: 40.0 mg/kg/injection, schedule: Q01DX001 (ip), vehicle: carboxymethylcellulose (CMC) 101 % of control | dose: 50.0 mg/kg/injection, schedule: Q01DX015 (ip), vehicle: saline 101 % of control

O=C1NC(CCO)C(=O)NC1CCO (configuration not stated)
inactive: [12] 97 % of control | [3] 100 % of control | [13] 112 % of control | [5] 97 % of control | [14] 104 % of control | [6] 100 % of control

CC1=CCCC(C)(C)C1/C=C/C(=O)O (configuration not stated)
inactive: [9] 105 % of control | [10] 97 % of control | [11] 101 % of control

O=C(NCCCCCCCCCCNC(=O)Nc1ccc(C2=NCCN2)cc1)Nc1ccc(C2=NCCN2)cc1
inactive: dose: 62.5 mg/kg/injection, schedule: Q01DX Z (ip), vehicle: carboxymethylcellulose (CMC) 98 % of control | dose: 125.0 mg/kg/injection, schedule: Q01DX Z (ip), vehicle: carboxymethylcellulose (CMC) 98 % of control | dose: 250.0 mg/kg/injection, schedule: Q01DX Z (ip), vehicle: carboxymethylcellulose (CMC) 106 % of control | dose: 500.0 mg/kg/injection, schedule: Q01DX Z (ip), vehicle: carboxymethylcellulose (CMC) 114 % of control

c1ccc([C](c2ccccc2)(c2ccccc2)[Sn]([c]2ccccc2)([c]2ccccc2)[c]2ccccc2)cc1
inactive: dose: 25.6 mg/kg/injection, schedule: Q04DX002 (ip), vehicle: saline with Tween-80 121 % of control | dose: 64.0 mg/kg/injection, schedule: Q04DX002 (ip), vehicle: saline with Tween-80 86 % of control | dose: 160.0 mg/kg/injection, schedule: Q04DX002 (ip), vehicle: saline with Tween-80 86 % of control | dose: 400.0 mg/kg/injection, schedule: Q04DX002 (ip), vehicle: saline with Tween-80 86 % of control

COc1ccc(C(C)=O)cc1CCC=O
inactive: [15] 97 % of control | dose: 200.0 mg/kg/injection, schedule: Q01DX001 (ip), vehicle: carboxymethylcellulose (CMC) 97 % of control | dose: 400.0 mg/kg/injection, schedule: Q01DX001 (ip), vehicle: carboxymethylcellulose (CMC) 97 % of control

CC(=O)NCCCc1c(C)nc(NC(C)=O)[nH]c1=O
inactive: dose: 25.0 mg/kg/injection, schedule: Q01DX001 (ip), vehicle: saline 94 % of control | [1] 108 % of control | [3] 102 % of control
